Source: the supplement of paper PMC10883282

What was measured:
Assay in all cases: relative viability vs DMSO control (72 h) (fraction); higher = more viable cells
[1] = tested on: VA-ES-BJ
How it was run: (§1)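 Sarcoma cell lines went into 384-well plates at densities chosen to reach 80–90% confluence. After 24 h, each well received 2.5 µl of serially diluted compound, with source plates running from 10 mM to 0.0002 mM, and the plates were kept 72 h at 37 °C, 5% CO2, alongside 0.1% DMSO vehicle and a 5 µM positive control. Relative viability was derived from ATPLite readings as percent growth and averaged over up to triplicate wells. The data were then rescaled so that 1 stands for full and 0 for none.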

[2] = tested on: SK-LMS-1
How it was run: as §1

[3] = tested on: RD-ES
How it was run: as §1

[4] = tested on: SW982
How it was run: as §1

[5] = tested on: SW872
How it was run: as §1

[6] = tested on: HT1080
How it was run: as §1

[7] = tested on: KHOS-NP
How it was run: as §1

[8] = tested on: G401
How it was run: as §1

[9] = tested on: A204
How it was run: as §1

[10] = tested on: HS729
How it was run: as §1

[11] = tested on: SW684
How it was run: as §1

[12] = tested on: SK-ES-1
How it was run: as §1

COc1cc2ncnc(Nc3ccc(F)c(Cl)c3)c2cc1NC(=O)/C=C/CN1CCCCC1 [Dacomitinib]
Conditions	relative viability
[1], 0.00017 µM	1.064
[1], 0.00051 µM	1.08
[1], 0.00152 µM	1.09
[1], 0.00457 µM	1.09
[1], 0.01372 µM	1.03
[1], 0.04115 µM	0.979
[1], 0.1235 µM	1.02
[1], 0.3704 µM	0.994
[1], 1.111 µM	0.914
[1], 3.333 µM	0.535
[1], 10 µM	-0.0076
[2], 0.00017 µM	1.11
[2], 0.00051 µM	1.11
[2], 0.00152 µM	1.11
[2], 0.00457 µM	1.13
[2], 0.01372 µM	1.09
[2], 0.04115 µM	1.08
[2], 0.1235 µM	1.04
[2], 0.3704 µM	1.03
[2], 1.111 µM	0.916
[2], 3.333 µM	0.701
[2], 10 µM	0.013
[3], 0.00017 µM	1.02
[3], 0.00051 µM	1.01
[3], 0.00152 µM	1.01
[3], 0.00457 µM	1.02
[3], 0.01372 µM	1.02
[3], 0.04115 µM	1.01
[3], 0.1235 µM	0.992
[3], 0.3704 µM	0.9359
[3], 1.111 µM	0.832
[3], 3.333 µM	0.474
[3], 10 µM	0.0093
[4], 0.00017 µM	1.05
[4], 0.00051 µM	1.07
[4], 0.00152 µM	1.08
[4], 0.00457 µM	1.09
[4], 0.01372 µM	1.08
[4], 0.04115 µM	1.08
[4], 0.1235 µM	1.04
[4], 0.3704 µM	0.986
[4], 1.111 µM	0.606
[4], 3.333 µM	0.21
[4], 10 µM	0.0159
[5], 0.00017 µM	1.1
[5], 0.00051 µM	1.12
[5], 0.00152 µM	1.1
[5], 0.00457 µM	1.11
[5], 0.01372 µM	1.11
[5], 0.04115 µM	1.08
[5], 0.1235 µM	1.05
[5], 0.3704 µM	1.03
[5], 1.111 µM	0.87
[5], 3.333 µM	0.508
[5], 10 µM	0.043
[6], 0.00017 µM	1.12
[6], 0.00051 µM	1.11
[6], 0.00152 µM	1.11
[6], 0.00457 µM	1.11
[6], 0.01372 µM	1.08
[6], 0.04115 µM	1.12
[6], 0.1235 µM	1.12
[6], 0.3704 µM	1.13
[6], 1.111 µM	1.15
[6], 3.333 µM	0.769
[6], 10 µM	0.0364
[7], 0.00017 µM	1.09
[7], 0.00051 µM	1.09
[7], 0.00152 µM	1.1
[7], 0.00457 µM	1.09
[7], 0.01372 µM	1.08
[7], 0.04115 µM	1.086
[7], 0.1235 µM	1.08
[7], 0.3704 µM	1.08
[7], 1.111 µM	1.08
[7], 3.333 µM	0.985
[7], 10 µM	0.0233
[8], 0.00017 µM	1.02
[8], 0.00051 µM	1.01
[8], 0.00152 µM	1.03
[8], 0.00457 µM	1.03
[8], 0.01372 µM	1.01
[8], 0.04115 µM	0.999
[8], 0.1235 µM	1.02
[8], 0.3704 µM	0.997
[8], 1.111 µM	0.849
[8], 3.333 µM	0.548
[8], 10 µM	0.00623
[9], 0.00017 µM	1.1
[9], 0.00051 µM	1.09
[9], 0.00152 µM	1.09
[9], 0.00457 µM	1.08
[9], 0.01372 µM	1.04
[9], 0.04115 µM	1.07
[9], 0.1235 µM	1.06
[9], 0.3704 µM	0.978
[9], 1.111 µM	0.751
[9], 3.333 µM	0.327
[9], 10 µM	0.0139
[10], 0.00017 µM	1.08
[10], 0.00051 µM	1.04
[10], 0.00152 µM	1.03
[10], 0.00457 µM	1.04
[10], 0.01372 µM	1.01
[10], 0.04115 µM	0.975
[10], 0.1235 µM	1
[10], 0.3704 µM	0.894
[10], 1.111 µM	0.844
[10], 3.333 µM	0.737
[10], 10 µM	0.318
[11], 0.00017 µM	1.22
[11], 0.00051 µM	1.23
[11], 0.00152 µM	1.208
[11], 0.00457 µM	1.18
[11], 0.01372 µM	1.18
[11], 0.04115 µM	1.15
[11], 0.1235 µM	1.22
[11], 0.3704 µM	1.08
[11], 1.111 µM	1.01
[11], 3.333 µM	0.599
[11], 10 µM	-0.00213
[12], 0.00017 µM	1.04
[12], 0.00051 µM	1.1
[12], 0.00152 µM	1.04
[12], 0.00457 µM	1.07
[12], 0.01372 µM	1.07
[12], 0.04115 µM	1.04
[12], 0.1235 µM	1.02
[12], 0.3704 µM	1.01
[12], 1.111 µM	0.662
[12], 3.333 µM	0.184
[12], 10 µM	0.00867
